Assay results taken from paper PMC3399817 (PLoS ONE, 2012).

Legend:
Assay type in all cases: binding
[1] = molecular target: T1, PRP4 (Homo sapiens, UniProt Q13523); assay: KINOMEscan; conditions: PRP4, 1 uM
T1 construct: purchased Ambit KINOMEscan (DiscoverX)

[2] = molecular target: T2, MAPKAPK2 (Homo sapiens, UniProt P49137); assay: KINOMEscan; conditions: MAPKAPK2, 1 uM
T2 construct: purchased Ambit KINOMEscan (DiscoverX)

[3] = molecular target: T3, GCN2(Kin.Dom.2,S808G) (Homo sapiens, UniProt Q9P2K8, S808G); assay: KINOMEscan; conditions: 1 uM
T3 construct: GCN2(Kin.Dom.2,S808G); purchased Ambit KINOMEscan (DiscoverX)
Description: (§1) First, we used Ambit's KINOMEscan™ technology to identify those kinases that are inhibited for substrate binding by the compounds, all assayed at 1 μM. Second, we used Invitrogen's SelectScreen® Biochemical Kinase Profiling Service to determine the in vitro IC50s for the compounds against specific kinases.

[4] = molecular target: T4, FER (Homo sapiens, UniProt P16591); assay: KINOMEscan; conditions: 1 uM
T4 construct: purchased Ambit KINOMEscan (DiscoverX)
Description: as §1

[5] = molecular target: T5, PIK3CA(C420R) (Homo sapiens, UniProt P42336, C420R); assay: KINOMEscan; conditions: 1 uM
T5 construct: purchased Ambit KINOMEscan (DiscoverX)
Description: as §1

[6] = molecular target: T6, SRMS (Homo sapiens, UniProt Q9H3Y6); assay: KINOMEscan; conditions: 1 uM
T6 construct: purchased Ambit KINOMEscan (DiscoverX)
Description: as §1

[7] = molecular target: T7, PHKG2 (Homo sapiens, UniProt P15735); assay: KINOMEscan; conditions: PHKG2, 1 uM
T7 construct: purchased Ambit KINOMEscan (DiscoverX)
Description: as §1

[8] = molecular target: T8, CDC2L2 (Homo sapiens, UniProt Q9UQ88); assay: KINOMEscan; conditions: CDC2L2, 1 uM
T8 construct: purchased Ambit KINOMEscan (DiscoverX)
Description: as §1

[9] = molecular target: T9, NDR1 (Homo sapiens, UniProt Q15208); assay: KINOMEscan; conditions: NDR1, 1 uM
T9 construct: purchased Ambit KINOMEscan (DiscoverX)
Description: as §1

[10] = molecular target: T10, ERK2 (Homo sapiens, UniProt P28482); assay: KINOMEscan; conditions: ERK2, 1 uM
T10 construct: purchased Ambit KINOMEscan (DiscoverX)
Description: as §1

[11] = molecular target: T11, INSR (Homo sapiens, UniProt P06213); assay: KINOMEscan; conditions: 1 uM
T11 construct: purchased Ambit KINOMEscan (DiscoverX)
Description: as §1

[12] = molecular target: T12, MEK6 (Homo sapiens, UniProt P52564); assay: KINOMEscan; conditions: MEK6, 1 uM
T12 construct: purchased Ambit KINOMEscan (DiscoverX)
Description: as §1

[13] = molecular target: T13, EPHA8 (Homo sapiens, UniProt P29322); assay: KINOMEscan; conditions: EPHA8, 1 uM
T13 construct: purchased Ambit KINOMEscan (DiscoverX)
Description: as §1

[14] = molecular target: T14, MLK2 (Homo sapiens, UniProt Q02779); assay: KINOMEscan; conditions: MLK2, 1 uM
T14 construct: purchased Ambit KINOMEscan (DiscoverX)
Description: as §1

[15] = molecular target: T15, LTK (Homo sapiens, UniProt P29376); assay: KINOMEscan; conditions: 1 uM
T15 construct: purchased Ambit KINOMEscan (DiscoverX)
Description: as §1

[16] = molecular target: T16, RPS6KA5(Kin.Dom.2-C-terminal) (Homo sapiens, UniProt O75582); assay: KINOMEscan; conditions: 1 uM
T16 construct: RPS6KA5(Kin.Dom.2-C-terminal); purchased Ambit KINOMEscan (DiscoverX)
Description: as §1

[17] = molecular target: T17, SgK110 (Homo sapiens, UniProt P0C264); assay: KINOMEscan; conditions: SgK110, 1 uM
T17 construct: purchased Ambit KINOMEscan (DiscoverX)
Description: as §1

[18] = molecular target: T18, JNK1 (Homo sapiens, UniProt P45983); assay: KINOMEscan; conditions: JNK1, 1 uM
T18 construct: purchased Ambit KINOMEscan (DiscoverX)
Description: as §1

[19] = molecular target: T19, BRSK2 (Homo sapiens, UniProt Q8IWQ3); assay: KINOMEscan; conditions: BRSK2, 1 uM
T19 construct: purchased Ambit KINOMEscan (DiscoverX)
Description: as §1

[20] = molecular target: T20, KIT(L576P) (Homo sapiens, UniProt P10721, L576P); assay: KINOMEscan; conditions: 1 uM
T20 construct: purchased Ambit KINOMEscan (DiscoverX)
Description: as §1

[21] = molecular target: T21, ABL1(H396P)-nonphosphorylated (Homo sapiens, UniProt P00519, H396P); assay: KINOMEscan; conditions: 1 uM
T21 construct: purchased Ambit KINOMEscan (DiscoverX)
Description: as §1

[22] = molecular target: T22, ROCK2 (Homo sapiens, UniProt O75116); assay: KINOMEscan; conditions: for % binding compared to no inhibitor control: ROCK2, 1 uM
T22 construct: purchased Ambit KINOMEscan (DiscoverX)
Description: as §1

[23] = molecular target: T23, TAOK3 (Homo sapiens, UniProt Q9H2K8); assay: KINOMEscan; conditions: TAOK3, 1 uM
T23 construct: purchased Ambit KINOMEscan (DiscoverX)
Description: as §1

[24] = molecular target: T24, BRAF(V600E) (Homo sapiens, UniProt P15056, V600E); assay: KINOMEscan; conditions: 1 uM
T24 construct: purchased Ambit KINOMEscan (DiscoverX)
Description: as §1

[25] = molecular target: T25, MLCK (Homo sapiens, UniProt Q32MK0); assay: KINOMEscan; conditions: 1 uM
T25 construct: purchased Ambit KINOMEscan (DiscoverX)
Description: as §1

[26] = molecular target: T26, PKN2 (Homo sapiens, UniProt Q16513); assay: KINOMEscan; conditions: PKN2, 1 uM
T26 construct: purchased Ambit KINOMEscan (DiscoverX)
Description: as §1

[27] = molecular target: T27, FES (Homo sapiens, UniProt P07332); assay: KINOMEscan; conditions: 1 uM
T27 construct: purchased Ambit KINOMEscan (DiscoverX)
Description: as §1

[28] = molecular target: T28, AMPK-alpha1 (Homo sapiens, UniProt Q13131); assay: KINOMEscan; conditions: AMPK-alpha1, 1 uM
T28 construct: purchased Ambit KINOMEscan (DiscoverX)
Description: as §1

[29] = molecular target: T29, TYK2(JH1domain-catalytic) (Homo sapiens, UniProt P29597); assay: KINOMEscan; conditions: 1 uM
T29 construct: TYK2(JH1domain-catalytic); purchased Ambit KINOMEscan (DiscoverX)
Description: as §1

[30] = molecular target: T30, STK33 (Homo sapiens, UniProt Q9BYT3); assay: KINOMEscan; conditions: STK33, 1 uM
T30 construct: purchased Ambit KINOMEscan (DiscoverX)
Description: as §1

[31] = molecular target: T31, ERBB2 (Homo sapiens, UniProt P04626); assay: KINOMEscan; conditions: ERBB2, 1 uM
T31 construct: purchased Ambit KINOMEscan (DiscoverX)
Description: as §1

[32] = molecular target: T32, CDK9 (Homo sapiens, UniProt P50750); assay: KINOMEscan; conditions: for % binding compared to no inhibitor control: CDK9, 1 uM
T32 construct: purchased Ambit KINOMEscan (DiscoverX)
Description: as §1

[33] = molecular target: T33, MST1 (Homo sapiens, UniProt Q13043); assay: KINOMEscan; conditions: MST1, 1 uM
T33 construct: purchased Ambit KINOMEscan (DiscoverX)
Description: as §1

[34] = molecular target: T34, DLK (Homo sapiens, UniProt Q12852); assay: KINOMEscan; conditions: 1 uM
T34 construct: purchased Ambit KINOMEscan (DiscoverX)
Description: as §1

[35] = molecular target: T35, HIPK3 (Homo sapiens, UniProt Q9H422); assay: KINOMEscan; conditions: HIPK3, 1 uM
T35 construct: purchased Ambit KINOMEscan (DiscoverX)
Description: as §1

[36] = molecular target: T36, EPHA1 (Homo sapiens, UniProt P21709); assay: KINOMEscan; conditions: EPHA1, 1 uM
T36 construct: purchased Ambit KINOMEscan (DiscoverX)
Description: as §1

[37] = molecular target: T37, HIPK2 (Homo sapiens, UniProt Q9H2X6); assay: KINOMEscan; conditions: for % binding compared to no inhibitor control: HIPK2, 1 uM
T37 construct: purchased Ambit KINOMEscan (DiscoverX)
Description: as §1

[38] = tested on: panel of 402 kinases; assay: KINOMEscan panel; conditions: 1 μM
Description: as §1

T37 sequence (Q9H2X6 whole entry): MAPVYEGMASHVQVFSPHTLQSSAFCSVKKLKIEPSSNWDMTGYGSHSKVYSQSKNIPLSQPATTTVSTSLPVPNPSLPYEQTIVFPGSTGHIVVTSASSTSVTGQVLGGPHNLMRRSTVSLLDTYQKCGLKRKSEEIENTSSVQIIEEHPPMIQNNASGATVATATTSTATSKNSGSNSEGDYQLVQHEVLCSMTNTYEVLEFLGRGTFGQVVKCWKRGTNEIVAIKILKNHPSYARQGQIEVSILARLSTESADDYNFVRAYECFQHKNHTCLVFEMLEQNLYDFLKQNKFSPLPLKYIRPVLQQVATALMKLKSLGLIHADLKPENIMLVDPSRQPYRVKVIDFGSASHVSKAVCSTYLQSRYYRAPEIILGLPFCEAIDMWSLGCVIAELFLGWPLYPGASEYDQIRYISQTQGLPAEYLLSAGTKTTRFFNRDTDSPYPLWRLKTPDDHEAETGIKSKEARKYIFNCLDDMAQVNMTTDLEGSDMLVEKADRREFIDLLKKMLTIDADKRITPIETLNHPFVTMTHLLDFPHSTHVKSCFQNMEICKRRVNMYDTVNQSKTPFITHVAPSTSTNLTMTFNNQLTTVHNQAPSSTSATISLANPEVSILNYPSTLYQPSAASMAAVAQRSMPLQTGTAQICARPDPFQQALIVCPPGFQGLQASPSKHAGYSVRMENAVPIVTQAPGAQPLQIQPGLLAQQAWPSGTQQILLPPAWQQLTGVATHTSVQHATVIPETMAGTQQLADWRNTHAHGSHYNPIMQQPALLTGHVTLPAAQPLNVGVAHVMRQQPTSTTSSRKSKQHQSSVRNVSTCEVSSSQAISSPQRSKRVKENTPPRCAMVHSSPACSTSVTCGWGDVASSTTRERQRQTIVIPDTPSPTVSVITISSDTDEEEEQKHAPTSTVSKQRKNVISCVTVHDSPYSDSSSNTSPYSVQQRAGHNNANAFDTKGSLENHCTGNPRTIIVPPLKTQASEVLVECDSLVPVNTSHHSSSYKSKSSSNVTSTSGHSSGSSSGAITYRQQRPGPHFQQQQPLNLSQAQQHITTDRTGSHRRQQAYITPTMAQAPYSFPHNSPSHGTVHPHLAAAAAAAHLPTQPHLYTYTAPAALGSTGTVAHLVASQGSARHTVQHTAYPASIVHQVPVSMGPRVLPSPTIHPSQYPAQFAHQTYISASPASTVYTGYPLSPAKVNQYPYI
T22 sequence (O75116 whole entry): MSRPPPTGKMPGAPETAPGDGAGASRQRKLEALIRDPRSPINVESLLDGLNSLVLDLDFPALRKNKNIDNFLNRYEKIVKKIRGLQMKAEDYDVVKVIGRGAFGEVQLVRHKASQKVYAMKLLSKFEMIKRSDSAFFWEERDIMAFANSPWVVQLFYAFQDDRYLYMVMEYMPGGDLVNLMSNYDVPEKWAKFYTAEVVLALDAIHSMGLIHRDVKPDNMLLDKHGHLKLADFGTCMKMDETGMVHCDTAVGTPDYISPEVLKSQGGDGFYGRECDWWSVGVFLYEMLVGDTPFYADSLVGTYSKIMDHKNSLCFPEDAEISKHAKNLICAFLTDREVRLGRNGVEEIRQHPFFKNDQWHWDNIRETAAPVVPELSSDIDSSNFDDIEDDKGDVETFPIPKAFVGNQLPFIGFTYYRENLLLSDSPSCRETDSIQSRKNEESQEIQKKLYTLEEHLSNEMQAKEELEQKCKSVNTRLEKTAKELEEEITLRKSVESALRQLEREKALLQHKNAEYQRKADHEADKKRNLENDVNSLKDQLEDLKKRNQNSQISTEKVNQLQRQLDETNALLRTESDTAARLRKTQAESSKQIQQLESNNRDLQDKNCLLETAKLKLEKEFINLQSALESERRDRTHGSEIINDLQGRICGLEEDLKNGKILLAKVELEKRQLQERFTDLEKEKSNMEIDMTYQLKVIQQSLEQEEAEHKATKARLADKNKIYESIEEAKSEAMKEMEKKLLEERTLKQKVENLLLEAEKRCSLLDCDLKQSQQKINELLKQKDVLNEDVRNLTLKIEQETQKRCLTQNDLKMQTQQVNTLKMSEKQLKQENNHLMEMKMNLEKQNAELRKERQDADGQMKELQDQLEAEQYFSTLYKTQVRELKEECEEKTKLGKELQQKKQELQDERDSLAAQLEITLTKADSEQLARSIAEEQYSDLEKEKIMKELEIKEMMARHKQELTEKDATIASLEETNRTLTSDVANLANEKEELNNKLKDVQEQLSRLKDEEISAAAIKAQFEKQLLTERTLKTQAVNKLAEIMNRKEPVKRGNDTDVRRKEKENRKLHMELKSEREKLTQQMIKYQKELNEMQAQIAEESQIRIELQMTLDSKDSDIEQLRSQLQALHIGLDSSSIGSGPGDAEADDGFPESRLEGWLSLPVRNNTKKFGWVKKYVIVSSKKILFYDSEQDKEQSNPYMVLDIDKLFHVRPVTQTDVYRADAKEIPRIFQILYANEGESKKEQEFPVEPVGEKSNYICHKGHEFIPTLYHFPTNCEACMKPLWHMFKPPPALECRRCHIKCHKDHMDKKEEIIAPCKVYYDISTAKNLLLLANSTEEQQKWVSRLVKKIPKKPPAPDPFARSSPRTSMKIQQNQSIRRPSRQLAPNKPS
T32 sequence (P50750 whole entry): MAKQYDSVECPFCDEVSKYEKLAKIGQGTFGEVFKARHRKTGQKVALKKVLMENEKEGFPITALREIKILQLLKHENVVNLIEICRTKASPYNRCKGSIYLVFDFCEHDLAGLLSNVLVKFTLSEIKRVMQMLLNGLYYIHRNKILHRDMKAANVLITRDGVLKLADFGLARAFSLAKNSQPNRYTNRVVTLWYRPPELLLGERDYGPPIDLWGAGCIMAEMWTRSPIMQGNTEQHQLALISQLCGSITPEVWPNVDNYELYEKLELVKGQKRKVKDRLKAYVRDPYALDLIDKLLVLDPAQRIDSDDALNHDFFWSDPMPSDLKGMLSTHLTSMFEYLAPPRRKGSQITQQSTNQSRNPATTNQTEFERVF
T23 sequence (Q9H2K8 whole entry): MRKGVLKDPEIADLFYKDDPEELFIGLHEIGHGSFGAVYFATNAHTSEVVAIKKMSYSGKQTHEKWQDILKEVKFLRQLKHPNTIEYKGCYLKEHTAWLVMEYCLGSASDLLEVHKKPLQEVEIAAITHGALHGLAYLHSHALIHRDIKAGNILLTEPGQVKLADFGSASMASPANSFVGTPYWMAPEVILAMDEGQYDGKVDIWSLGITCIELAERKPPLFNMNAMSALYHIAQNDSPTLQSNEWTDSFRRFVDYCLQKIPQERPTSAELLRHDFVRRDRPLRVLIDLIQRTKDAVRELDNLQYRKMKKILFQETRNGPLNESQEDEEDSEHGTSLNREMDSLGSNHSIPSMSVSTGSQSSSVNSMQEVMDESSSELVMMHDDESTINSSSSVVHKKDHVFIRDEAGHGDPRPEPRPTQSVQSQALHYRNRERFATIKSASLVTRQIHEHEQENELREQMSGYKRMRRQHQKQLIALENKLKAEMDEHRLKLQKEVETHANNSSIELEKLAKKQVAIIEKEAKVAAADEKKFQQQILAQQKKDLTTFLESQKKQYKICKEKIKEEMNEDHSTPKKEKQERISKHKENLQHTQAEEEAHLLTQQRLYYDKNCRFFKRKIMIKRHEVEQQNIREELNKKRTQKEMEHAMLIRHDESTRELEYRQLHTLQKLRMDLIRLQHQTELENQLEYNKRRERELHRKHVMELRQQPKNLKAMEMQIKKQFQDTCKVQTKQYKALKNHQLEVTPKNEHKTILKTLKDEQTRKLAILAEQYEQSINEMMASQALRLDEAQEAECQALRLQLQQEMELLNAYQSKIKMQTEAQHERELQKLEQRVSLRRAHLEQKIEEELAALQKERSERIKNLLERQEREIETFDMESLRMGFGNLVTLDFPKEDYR
T20 sequence (P10721 26-976 L576P): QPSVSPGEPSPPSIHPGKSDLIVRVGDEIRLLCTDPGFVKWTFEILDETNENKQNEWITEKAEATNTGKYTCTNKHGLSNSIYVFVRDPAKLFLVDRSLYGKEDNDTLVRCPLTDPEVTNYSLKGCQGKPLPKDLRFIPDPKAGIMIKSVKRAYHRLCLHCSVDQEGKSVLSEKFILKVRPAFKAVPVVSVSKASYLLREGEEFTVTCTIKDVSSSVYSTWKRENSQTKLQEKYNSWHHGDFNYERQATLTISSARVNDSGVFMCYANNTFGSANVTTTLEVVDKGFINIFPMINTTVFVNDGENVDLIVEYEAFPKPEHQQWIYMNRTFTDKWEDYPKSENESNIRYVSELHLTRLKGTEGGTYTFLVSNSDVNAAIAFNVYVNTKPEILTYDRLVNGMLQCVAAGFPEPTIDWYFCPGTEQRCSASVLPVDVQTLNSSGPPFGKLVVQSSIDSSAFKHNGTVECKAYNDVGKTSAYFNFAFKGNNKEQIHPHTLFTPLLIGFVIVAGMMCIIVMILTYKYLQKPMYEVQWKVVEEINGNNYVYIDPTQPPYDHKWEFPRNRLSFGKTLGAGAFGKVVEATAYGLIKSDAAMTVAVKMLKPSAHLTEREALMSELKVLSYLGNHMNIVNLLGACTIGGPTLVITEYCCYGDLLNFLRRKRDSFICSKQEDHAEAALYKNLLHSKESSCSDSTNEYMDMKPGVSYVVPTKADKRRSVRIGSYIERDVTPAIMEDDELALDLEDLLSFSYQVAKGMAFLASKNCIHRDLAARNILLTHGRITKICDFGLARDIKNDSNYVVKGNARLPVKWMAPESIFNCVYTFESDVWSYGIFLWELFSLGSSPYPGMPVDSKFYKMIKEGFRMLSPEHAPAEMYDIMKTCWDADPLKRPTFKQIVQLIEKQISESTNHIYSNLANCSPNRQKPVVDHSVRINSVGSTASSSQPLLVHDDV

In the case of COc1ccccc1Nc1nc(-c2ccc(OC)c(OC)c2)cc2nccn12 [BAY derivative 6], the “% binding compared to no inhibitor control” value [1] is reported as 100%, the “% binding compared to no inhibitor control” value [2] is reported as 93% and the “% binding compared to no inhibitor control” value [3] is reported as 99%. For the same molecule, the “% binding compared to no inhibitor control” value [4] was 100%, the “% binding compared to no inhibitor control” value [5] was 100% and the “% binding compared to no inhibitor control” value [6] was 97%. The “% binding compared to no inhibitor control” value [7] was 100%, the “% binding compared to no inhibitor control” value [8] was 100% and the “% binding compared to no inhibitor control” value [9] was 100%. For the same molecule, the “% binding compared to no inhibitor control” value [10] was 70%, the “% binding compared to no inhibitor control” value [11] was 99% and the “% binding compared to no inhibitor control” value [12] was 97%. The “% binding compared to no inhibitor control” value [13] was 100%, the “% binding compared to no inhibitor control” value [14] was 100% and the “% binding compared to no inhibitor control” value [15] was 30%. For the same molecule, the “% binding compared to no inhibitor control” value [16] was 97%, the “% binding compared to no inhibitor control” value [17] was 100% and the “% binding compared to no inhibitor control” value [18] was 95%. For the same molecule, the “% binding compared to no inhibitor control” value [19] was 100%, the “% binding compared to no inhibitor control” value [20] was 38% and the “% binding compared to no inhibitor control” value [21] was 92%. The “% binding compared to no inhibitor control” value [22] was 96%, the “% binding compared to no inhibitor control” value [23] was 100% and the “% binding compared to no inhibitor control” value [24] was 100%. The “% binding compared to no inhibitor control” value [25] was 100%, the “% binding compared to no inhibitor control” value [26] was 91% and the “% binding compared to no inhibitor control” value [27] was 100%. The “% binding compared to no inhibitor control” value [28] was 100%, the “% binding compared to no inhibitor control” value [29] was 25% and the “% binding compared to no inhibitor control” value [30] was 100%. For the same molecule, the “% binding compared to no inhibitor control” value [31] was 71%, the “% binding compared to no inhibitor control” value [32] was 100% and the “% binding compared to no inhibitor control” value [33] was 87%. The “% binding compared to no inhibitor control” value [34] was 100%, the “% binding compared to no inhibitor control” value [35] was 95% and the “% binding compared to no inhibitor control” value [36] was 81%. The “% binding compared to no inhibitor control” value [37] was 100% and the “ability to competitively inhibit active site (ATP) binding across the kinase panel” value [38] was “failed to effectively inhibit ATP binding by the majority of kinases”.

For COc1ccc(-c2cc3nccn3c(Nc3ncccc3C(N)=O)n2)cc1OC.Cl.Cl [BAY61-3606, 2-[7-(3,4-dimethoxyphenyl)-imidazo [1,2-c]pyrimidin-5-ylamino] nicotinamide dihydrochloride, reference compound], the “% binding compared to no inhibitor control” value [1] was 77%, the “% binding compared to no inhibitor control” value [2] was 100% and the “% binding compared to no inhibitor control” value [3] was 54%. For the same molecule, the “% binding compared to no inhibitor control” value [4] was 69%, the “% binding compared to no inhibitor control” value [5] was 100% and the “% binding compared to no inhibitor control” value [6] was 65%. For the same molecule, the “% binding compared to no inhibitor control” value [7] was 26%, the “% binding compared to no inhibitor control” value [8] was 100% and the “% binding compared to no inhibitor control” value [9] was 80%. For the same molecule, the “% binding compared to no inhibitor control” value [10] was 68%, the “% binding compared to no inhibitor control” value [11] was 60% and the “% binding compared to no inhibitor control” value [12] was 40%. The “% binding compared to no inhibitor control” value [13] was 83%, the “% binding compared to no inhibitor control” value [14] was 91% and the “% binding compared to no inhibitor control” value [15] was 46%. For the same molecule, the “% binding compared to no inhibitor control” value [16] was 89%, the “% binding compared to no inhibitor control” value [17] was 100% and the “% binding compared to no inhibitor control” value [18] was 18%. The “% binding compared to no inhibitor control” value [19] was 84%, the “% binding compared to no inhibitor control” value [20] was 0.4% and the “% binding compared to no inhibitor control” value [21] was 96%. The “% binding compared to no inhibitor control” value [22] was 13%, the “% inhibition ATP binding” value ([22]; ROCK2, KINOMEscan, 1 μM) was 87% and the “% binding compared to no inhibitor control” value [23] was 100%. For the same molecule, the “% binding compared to no inhibitor control” value [24] was 84%, the “% binding compared to no inhibitor control” value [25] was 100% and the “% binding compared to no inhibitor control” value [26] was 34%. The “% binding compared to no inhibitor control” value [27] was 88%, the “% binding compared to no inhibitor control” value [28] was 92% and the “% binding compared to no inhibitor control” value [29] was 99%. The “% binding compared to no inhibitor control” value [30] was 87%, the “% binding compared to no inhibitor control” value [31] was 93% and the “% binding compared to no inhibitor control” value [32] was 56%. For the same molecule, the “% inhibition ATP binding” value ([32]; CDK9, KINOMEscan, 1 μM) was 44%, the “% binding compared to no inhibitor control” value [33] was 85% and the “% binding compared to no inhibitor control” value [34] was 87%. The “% binding compared to no inhibitor control” value [35] was 36%, the “% binding compared to no inhibitor control” value [36] was 81% and the “% binding compared to no inhibitor control” value [37] was 9%. The “% inhibition ATP binding” value ([37]; HIPK2, KINOMEscan, 1 μM) was 91% and the “number of kinases with binding inhibited by greater than 90%” value ([38]; panel of 402 kinases) was 15 kinases.
